The text below walks through data of PMC4389225, “Triaminopyrimidine is a fast-killing and long-acting antimalarial clinical candidate” (Nature Communications, 2015).

The EC50 is the concentration that produces a half-maximal response. By IC50 is commonly meant the midpoint of a concentration-inhibition curve. A lower IC50 goes with greater potency in that assay.

The subject of one data set is Pf3D7^0087/N9. Briefly: animal or person. The class given is in vivo, Plasmodium falciparum. The source says: All animal studies were ethically reviewed and carried out in accordance with European Directive 86/609/EEC and the GSK Policy on the Care, Welfare and Treatment of Animals. During this experiment, female mice were used from the batch NSGJ 01/1 (The Jackson Laboratory, USA). The therapeutic efficacy of compound 12 against Pf3D7^0087/N9 was studied using a ‘4-day test’ reported earlier. Briefly, NODscidIL2Rγ^null mice engrafted with human erythrocytes were infected with 20 × 10^6 Pf-infected erythrocytes. Infections were performed by i.v. inoculation. All mice were randomly assigned to their corresponding treatment. The treatment started at day 3 and finished at day 6 after infection. The compound was administered orally as a suspension in 0.5% w/v hydroxypropyl methylcellulose (HPMC) with 0.1% v/v Tween 80, using an oral gavage at a maximum dose volume of 20 ml kg^−1. Vehicle alone was administered in untreated mice. In all cases, parasitemia was assessed in samples from peripheral blood obtained at days 3–7 after infection. A qualitative analysis of the effect of treatment on Pf3D7^0087/N9 was assessed by microscopy and flow cytometry. Fresh samples of peripheral blood from Pf-infected mice were stained with TER-119-Phycoerythrine (marker of murine erythrocytes) and SYTO-16 (nucleic acid dye) and then analysed by flow cytometry (FACS Calibur, BD). Microscopy analysis was performed with Giemsa-stained blood smears from samples taken at days 5 and 7 (48 and 96 h after starting treatment, respectively).
PK-PD model for the metabolite (compound 9) alone. Pharmacokinetic data from the Pf/SCID model was linked to efficacy using the following equation5.
Where P [log (total no. of parasites / mouse)], Kgro (growth rate constant), Pmax (log (maximum no. of parasites / mouse)), Kkill (maximum kill rate constant), H (Hill slope), EC50 (concentration required for achieving half maximal kill rate) and Ce (concentration of the drug in the effect compartment). Percent parasitemia values were converted into total number of parasites in mouse blood assuming […] (9.23 log10) RBCs per mouse. The lower limit of quantitation for % parasitemia was 0.01% or 5.23 log10. Effect compartment was used for modelling the delay observed in efficacy at a lower dose. […]

Another data set concerns Dd2-6R F2 B5. Briefly: SYBR green growth assay, Dd2-6R F2 B5.
Another data set has as its system Dd2 bc-1 ELQ-300. As to the kind of experiment: [3H]-hypoxanthine incorporation assay, Dd2 bc-1 ELQ-300 resistant. The format is cell-based, Plasmodium falciparum. The note with it: Plasmodium falciparum, DD2. How it is done:
(§1) Supplementary Table 3: Compound 9 and 12 retain their activity against Pf strains harbouring mutations to novel antimalarial agents in clinical development. Compound 9 and 12 were tested for their antiplasmodial activity against a panel of Pf strains known to harbour mutations conferring resistance to novel agents under clinical development. Parasite growth inhibition is measured using the [3H]-hypoxanthine incorporation assay. IC50s are established for each strain (n ≥2) and compared to the IC50 of Dd2 (standard pan-resistant […]

A further data set concerns Dd2 PI4K Cpd 1. As to the kind of experiment: [3H]-hypoxanthine incorporation assay, Dd2 PI4K Cpd 1 resistant. The class given is cell-based. As to conditions: Plasmodium falciparum. The procedure: as §1

Where only a bound is given, the exact number is not on record here.

Method for Dd2-6R F2 B5: Assays were carried out in 384-well format with three technical replicates within an assay day and biological replicates carried out on three different assay days to assign a final EC50.
The drug was then washed off and the parasites were allowed to recover in normal growth media.

With `Cc1nc(Nc2ncc(N3CCN(C)[C@H](C)C3)c(Nc3cc(C)n(C)n3)n2)cc(C2CC2)c1F` [compound 12, (R)-N2-(4-cyclopropyl-5-fluoro-6-methylpyridin-2-yl)-N4-(1,5-dimethyl-1H-pyrazol-3-yl)-5-(3,4-dimethylpiperazin-1-yl)pyrimidine-2,4-diamine], in the data set with Pf3D7^0087/N9 (4 days of daily treatment, 20 mg kg^−1, oral), the “clearance of Pf parasites” value is “below detection limit”. This compound gave an EC50 in the data set on Pf3D7^0087/N9 (Plasmodium falciparum, in Mus musculus) of 38 nM. Further, the ED99 in the data set with Pf3D7^0087/N9 (mouse model of Pf malaria) was < 30 mg/kg. Further, the “dose at which maximum kill rate was observed” value in the data set on Pf3D7^0087/N9 (oral, 4-day test) was 40 mg/kg. Moreover, the Kkill in the data set on Pf3D7^0087/N9 (parent, model predicted estimate) was 0.097 h⁻¹. For the same compound, the half-inhibitory concentration (IC50) with Dd2-6R F2 B5 (Plasmodium falciparum, DD2) was 81 ± 17.9 nM; with Dd2 bc-1 ELQ-300, 8.2 nM; in the data set with Dd2 PI4K Cpd 1 it was 7.1 nM. Further, in the data set on Dd2-6R F2 B5 (compound 6-resistant Dd2-6R clones (five clones)), the “increase in IC50 compared with the parental Dd2 line” value is recorded as 3-6 fold.
